Measurements taken from PubChem BioAssay (NCI).
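In this assay, cells in 96-well plates receive the compound at five concentrations for 48 hours. Endpoints are linearly interpolated between the surrounding concentrations. TGI denotes the concentration required for complete inhibition of growth.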

Legend:
Assay in all cases: DTP human tumour cell line panel, 48 h
NCI/ADR-RES ovarian = system: NCI/ADR-RES ovarian
OVCAR-5 ovarian = system: OVCAR-5 ovarian
A549 NSCLC = system: A549 NSCLC
UO-31 renal = system: UO-31 renal
SNB-19 CNS = system: SNB-19 CNS
DU-145 prostate = system: DU-145 prostate
SF-539 CNS = system: SF-539 CNS
HT29 colon = system: HT29 colon
SN12C renal = system: SN12C renal
CCRF-CEM leukemia = system: CCRF-CEM leukemia
LOX IMVI melanoma = system: LOX IMVI melanoma
KM12 colon = system: KM12 colon
TK-10 renal = system: TK-10 renal
BT-549 breast = system: BT-549 breast
ACHN renal = system: ACHN renal
UACC-62 melanoma = system: UACC-62 melanoma
MALME-3M melanoma = system: MALME-3M melanoma
MOLT-4 leukemia = system: MOLT-4 leukemia
CAKI-1 renal = system: CAKI-1 renal
SK-MEL-2 melanoma = system: SK-MEL-2 melanoma
IGROV1 ovarian = system: IGROV1 ovarian
HCT-116 colon = system: HCT-116 colon
NCI-H460 lung = system: NCI-H460 lung
786-0 renal = system: 786-0 renal
NCI-H23 lung = system: NCI-H23 lung
MCF7 breast = system: MCF7 breast
K-562 leukemia = system: K-562 leukemia
SNB-75 CNS = system: SNB-75 CNS
T-47D breast = system: T-47D breast
HL-60(TB) leukemia = system: HL-60(TB) leukemia
EKVX NSCLC = system: EKVX NSCLC
PC-3 prostate = system: PC-3 prostate
SK-MEL-28 melanoma = system: SK-MEL-28 melanoma
MDA-MB-435 = system: MDA-MB-435
SR leukemia = system: SR leukemia
HS 578T breast = system: HS 578T breast
OVCAR-8 ovarian = system: OVCAR-8 ovarian
A498 renal = system: A498 renal
OVCAR-4 ovarian = system: OVCAR-4 ovarian
RXF 393 renal = system: RXF 393 renal
UACC-257 melanoma = system: UACC-257 melanoma
U251 CNS = system: U251 CNS
COLO 205 colon = system: COLO 205 colon
NCI-H522 lung = system: NCI-H522 lung
SK-OV-3 ovarian = system: SK-OV-3 ovarian
OVCAR-3 ovarian = system: OVCAR-3 ovarian
HCT-15 colon = system: HCT-15 colon
MDA-N = system: MDA-N
SF-295 CNS = system: SF-295 CNS
RPMI-8226 leukemia = system: RPMI-8226 leukemia
SF-268 CNS = system: SF-268 CNS
SK-MEL-5 melanoma = system: SK-MEL-5 melanoma
HCC-2998 colon = system: HCC-2998 colon
HOP-92 NSCLC = system: HOP-92 NSCLC
SW-620 colon = system: SW-620 colon
MDA-MB-231 breast = system: MDA-MB-231 breast
NCI-H226 lung = system: NCI-H226 lung
M14 melanoma = system: M14 melanoma
HOP-62 NSCLC = system: HOP-62 NSCLC

SMILES: Clc1ccc(C2c3ccccc3-c3nc4ccccc4n32)cc1 (stereo not drawn)
- TGI (NCI/ADR-RES ovarian): > 68.2 µM
- TGI (OVCAR-5 ovarian): > 75 µM
- TGI (A549 NSCLC): > 78.7 µM
- TGI (UO-31 renal): > 60.5 µM
- TGI (SNB-19 CNS): > 64.8 µM
- TGI (DU-145 prostate): > 100 µM
- TGI (SF-539 CNS): > 95.4 µM
- TGI (HT29 colon): > 88.9 µM
- TGI (SN12C renal): > 100 µM
- TGI (CCRF-CEM leukemia): > 100 µM
- TGI (LOX IMVI melanoma): 59.2 µM
- TGI (KM12 colon): > 100 µM
- TGI (TK-10 renal): > 100 µM
- TGI (BT-549 breast): > 100 µM
- TGI (ACHN renal): > 100 µM
- TGI (UACC-62 melanoma): > 69.4 µM
- TGI (MALME-3M melanoma): 82.3 µM
- TGI (MOLT-4 leukemia): > 51.7 µM
- TGI (CAKI-1 renal): > 100 µM
- TGI (SK-MEL-2 melanoma): > 65.4 µM
- TGI (IGROV1 ovarian): > 86.1 µM
- TGI (HCT-116 colon): > 53.3 µM
- TGI (NCI-H460 lung): > 100 µM
- TGI (786-0 renal): 51 µM
- TGI (NCI-H23 lung): > 100 µM
- TGI (MCF7 breast): > 68.1 µM
- TGI (K-562 leukemia): > 100 µM
- TGI (SNB-75 CNS): > 100 µM
- TGI (T-47D breast): > 100 µM
- TGI (HL-60(TB) leukemia): > 83.3 µM
- TGI (EKVX NSCLC): > 73.9 µM
- TGI (PC-3 prostate): > 77.1 µM
- TGI (SK-MEL-28 melanoma): > 100 µM
- TGI (MDA-MB-435): > 100 µM
- TGI (SR leukemia): > 54.4 µM
- TGI (HS 578T breast): > 100 µM
- TGI (OVCAR-8 ovarian): > 79.5 µM
- TGI (A498 renal): > 79.9 µM
- TGI (OVCAR-4 ovarian): > 73 µM
- TGI (RXF 393 renal): 17.8 µM
- TGI (UACC-257 melanoma): > 100 µM
- TGI (U251 CNS): > 100 µM
- TGI (COLO 205 colon): > 100 µM
- TGI (NCI-H522 lung): 67.9 µM
- TGI (SK-OV-3 ovarian): > 39 µM
- TGI (OVCAR-3 ovarian): 37.2 µM
- TGI (HCT-15 colon): > 100 µM
- TGI (MDA-N): > 100 µM
- TGI (SF-295 CNS): > 36.6 µM
- TGI (RPMI-8226 leukemia): > 65 µM
- TGI (SF-268 CNS): > 63.9 µM
- TGI (SK-MEL-5 melanoma): > 100 µM
- TGI (HCC-2998 colon): > 75.2 µM
- TGI (HOP-92 NSCLC): > 100 µM
- TGI (SW-620 colon): > 100 µM
- TGI (MDA-MB-231 breast): > 100 µM
- TGI (NCI-H226 lung): > 64.5 µM
- TGI (M14 melanoma): 99 µM
- TGI (HOP-62 NSCLC): 62.8 µM

SMILES: CC(O)C1(CNc2cc(Cl)nc(N)n2)CCCC1 (stereo not drawn)
- TGI (NCI/ADR-RES ovarian): > 100 µM
- TGI (OVCAR-5 ovarian): > 100 µM
- TGI (A549 NSCLC): > 100 µM
- TGI (UO-31 renal): > 100 µM
- TGI (SNB-19 CNS): > 100 µM
- TGI (DU-145 prostate): > 100 µM
- TGI (SF-539 CNS): > 100 µM
- TGI (HT29 colon): > 100 µM
- TGI (SN12C renal): > 100 µM
- TGI (CCRF-CEM leukemia): > 100 µM
- TGI (LOX IMVI melanoma): > 100 µM
- TGI (KM12 colon): > 100 µM
- TGI (TK-10 renal): > 100 µM
- TGI (BT-549 breast): > 100 µM
- TGI (ACHN renal): > 100 µM
- TGI (UACC-62 melanoma): > 100 µM
- TGI (MALME-3M melanoma): > 100 µM
- TGI (MOLT-4 leukemia): > 100 µM
- TGI (CAKI-1 renal): > 100 µM
- TGI (SK-MEL-2 melanoma): > 100 µM
- TGI (IGROV1 ovarian): > 100 µM
- TGI (HCT-116 colon): > 100 µM
- TGI (NCI-H460 lung): > 100 µM
- TGI (786-0 renal): > 100 µM
- TGI (NCI-H23 lung): > 100 µM
- TGI (MCF7 breast): > 100 µM
- TGI (K-562 leukemia): > 100 µM
- TGI (SNB-75 CNS): > 100 µM
- TGI (T-47D breast): > 100 µM
- TGI (HL-60(TB) leukemia): > 100 µM
- TGI (EKVX NSCLC): > 100 µM
- TGI (PC-3 prostate): > 100 µM
- TGI (SK-MEL-28 melanoma): > 100 µM
- TGI (MDA-MB-435): > 100 µM
- TGI (SR leukemia): > 100 µM
- TGI (HS 578T breast): > 100 µM
- TGI (OVCAR-8 ovarian): > 100 µM
- TGI (A498 renal): > 100 µM
- TGI (OVCAR-4 ovarian): > 100 µM
- TGI (RXF 393 renal): > 100 µM
- TGI (UACC-257 melanoma): > 100 µM
- TGI (U251 CNS): > 100 µM
- TGI (COLO 205 colon): > 100 µM
- TGI (NCI-H522 lung): > 100 µM
- TGI (SK-OV-3 ovarian): > 100 µM
- TGI (OVCAR-3 ovarian): > 100 µM
- TGI (HCT-15 colon): > 100 µM
- TGI (MDA-N): > 100 µM
- TGI (SF-295 CNS): > 100 µM
- TGI (RPMI-8226 leukemia): > 100 µM
- TGI (SF-268 CNS): > 100 µM
- TGI (SK-MEL-5 melanoma): > 100 µM
- TGI (HCC-2998 colon): > 100 µM
- TGI (HOP-92 NSCLC): > 100 µM
- TGI (SW-620 colon): > 100 µM
- TGI (MDA-MB-231 breast): > 100 µM
- TGI (NCI-H226 lung): > 100 µM
- TGI (M14 melanoma): > 100 µM
- TGI (HOP-62 NSCLC): > 100 µM
